Experimental data from patent US20060194259A1, “Method for isolating an allosteric effector of a receptor” (priority 2002, published 2006).

Experiments:
receptor EGFP-NK2R [1] = biological target: T1, receptor EGFP-NK2R (Homo sapiens, UniProt P21452); experiment: Reversion of the binding of NKA-Bo to EGFP-NK2R by fluorescence energy transfer; conditions: read-out: % bond reversion (50 μM)
T1 sequence (P21452 1-398): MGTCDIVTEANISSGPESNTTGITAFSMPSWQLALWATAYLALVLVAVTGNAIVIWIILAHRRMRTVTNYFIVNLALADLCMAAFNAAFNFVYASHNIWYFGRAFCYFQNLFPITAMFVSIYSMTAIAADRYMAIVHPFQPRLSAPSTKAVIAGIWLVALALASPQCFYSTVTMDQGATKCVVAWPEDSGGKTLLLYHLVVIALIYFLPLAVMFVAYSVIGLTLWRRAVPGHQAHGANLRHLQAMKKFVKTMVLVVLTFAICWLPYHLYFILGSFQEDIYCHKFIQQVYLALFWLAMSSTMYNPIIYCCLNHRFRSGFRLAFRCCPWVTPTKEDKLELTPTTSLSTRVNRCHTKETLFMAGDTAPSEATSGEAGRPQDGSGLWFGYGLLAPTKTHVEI
From the text: The amplitude of each relaxation is then given by the adjustment of the experimental traces.

[2] = biological target: T2, wild-type human receptor NK2 (Homo sapiens, UniProt P21452); experiment: Calcium response caused by neurokinin A in HEK 293 cells expressing NK2 receptor; type: cell-based; conditions: 805 20 μM; neurokinin A 10 or 100 nM
T2 construct: expressed in transfected cells; host or cells: HEK 293
T2 sequence (P21452 1-398): T1 sequence (P21452 1-398)
Protocol: (§1) The cells are put into suspension at a rate of 1,000,000 cells/ml in Hepes buffer (op. cit.) and arranged in a spectrofluorimeter cuvette. The excitation wavelength is fixed at 338 nm and the emission is recorded at 400 nm. The responses traced are the signals recorded at 400 nm.

[3] = biological target: T3, wild-type human receptor NK1 (Homo sapiens, UniProt P25103); experiment: Calcium response caused by substance P in HEK 293 cells expressing NK1 receptor; type: cell-based; conditions: 805 20 μM; substance P 0.1 or 10 nM
T3 construct: expressed in transfected cells; host or cells: HEK 293
T3 sequence (P25103 whole entry): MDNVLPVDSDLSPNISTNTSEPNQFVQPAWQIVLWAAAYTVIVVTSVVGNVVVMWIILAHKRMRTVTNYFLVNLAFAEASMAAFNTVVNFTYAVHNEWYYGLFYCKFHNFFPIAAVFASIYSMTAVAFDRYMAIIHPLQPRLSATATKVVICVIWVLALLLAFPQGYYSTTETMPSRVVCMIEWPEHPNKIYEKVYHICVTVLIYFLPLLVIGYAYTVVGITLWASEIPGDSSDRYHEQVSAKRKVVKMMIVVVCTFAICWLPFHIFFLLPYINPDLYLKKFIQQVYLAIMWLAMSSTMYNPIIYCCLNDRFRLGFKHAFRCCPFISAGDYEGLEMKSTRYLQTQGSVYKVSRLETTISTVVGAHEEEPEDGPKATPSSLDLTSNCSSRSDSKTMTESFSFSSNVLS
Protocol: In FIGS. 12A and 12B, a suspension (1×10^6 cells/ml) of HEK 293 cells expressing the wild-type human NK1 receptor, and charged with indo-1 (3 μM) is stimulated by 0.1 nM (FIG. 12A) or 10 nM (FIG. 12B) of substance P(SP) in the presence (black circles) and in the absence (white circles) of 805 molecules (20 μM).
as §1

receptor EGFP-NK2R [4] = biological target: T1, receptor EGFP-NK2R; experiment: Calcium response caused by NKA 4-10 TR7 in HEK 293 cells expressing EGFP-NK2R (indo-1); type: cell-based; conditions: 805 20 μM; NKA 4-10 TR7 106, 50.3, 26.5 and 10.6 nM
Protocol: The cells are put into suspension at a rate of 500,000 cells/ml in Hepes buffer and arranged in a spectrofluorimeter cuvette. The excitation wavelength is fixed at 355 nm and the emission is recorded at […].

N#CCN(Cc1ccccc1)Cc1ccc2ccccc2c1 [compound 805, [benzyl(2-naphthylmethyl)amino]acetonitrile]
inhibition at 50 µM (receptor EGFP-NK2R [1]): 9%
effect on the calcium response caused by neurokinin A [2]: increases the amplitude of the response
effect on the calcium response caused by substance P [3]: increases the amplitude of the response
effect on the calcium response caused by NKA 4-10 TR7 (receptor EGFP-NK2R [4]): increases the amplitude of the response
